{"source": "paper PMC12573178", "about": "“Substrate-Guided Development of HDAC11-Selective Inhibitors Featuring α‑Amino Amide Zinc-Binding Groups” (ACS Omega, 2025)", "key": {"[1]": {"assay": "Stability in aqueous solution", "type": "physicochemical", "conditions": "37 °C for 24 h"}, "HDAC11 [2]": {"target": "T1, HDAC11 (Homo sapiens, UniProt Q96DB2)", "T1 sequence (Q96DB2 1-347)": "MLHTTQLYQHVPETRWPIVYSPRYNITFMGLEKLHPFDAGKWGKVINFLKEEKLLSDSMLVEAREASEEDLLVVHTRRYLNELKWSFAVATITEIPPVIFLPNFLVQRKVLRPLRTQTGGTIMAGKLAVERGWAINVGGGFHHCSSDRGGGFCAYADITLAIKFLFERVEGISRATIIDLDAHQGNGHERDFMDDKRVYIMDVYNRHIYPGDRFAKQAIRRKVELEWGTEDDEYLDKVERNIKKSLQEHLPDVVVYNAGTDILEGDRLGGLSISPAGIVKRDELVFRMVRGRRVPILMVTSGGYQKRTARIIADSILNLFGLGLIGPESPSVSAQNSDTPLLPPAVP", "assay": "Substrate assay: incubation with HDAC11, UPLC-MS analysis of cleavage product", "type": "biochemical", "conditions": "50 μM compound, 10 or 100 nM HDAC11, 37 °C, 24 h", "procedure": "Because acylated H3K9 peptides are known to be substrates of HDAC11, , it had to be analyzed if the presence of a substitution in close proximity to the hydrolyzable amide bond is sufficient to suppress the deacylation of the compound by HDAC11, thereby transforming a substrate into an inhibitor. Accordingly, 50 μM of the most promising compounds, specifically 2, 10, 17, and 18, were incubated in the presence of 10 or 100 nM of HDAC11 at 37 °C for 24 h, followed by UPLC–MS analysis. […] Consequently, compounds 17 and 18 were excluded from further analyses.\nThe peptides were incubated at 50 μM, together with 10 or 100 nM HDAC11 in HDAC11 buffer for 24 h at 37 °C. The solution was then analyzed using UPLC–MS.\nF. UPLC-MS Data of the substrate test\nIn order to ascertain whether peptides 2, 10, 17 and 18 are possible substrates of HDAC11, 50 µM of the peptides were incubated with 100 nM HDAC11 for 24 hours at 37°C. Subsequently, a sample of the solutions was subjected to analysis using UPLC-MS. The presence of the double-charged peptide representing the expected cleavage product Ac-TARKSTG-NH2 of 2, 10, 17 and 18 with the m/z ratio of [M+2H]2+ (381.45) was taken as an indicator of a HDAC11-catalysed reaction. […]\nexclusively HDAC11 in the assay buffer. No signal indicative for the product peptide was detected. […]\nAbsorbance at 220 nm is shown. […]"}, "HDAC11 [3]": {"target": "T1, HDAC11", "assay": "HDAC11 inhibition, continuous fluorescence-based assay with fatty-acylated peptide substrate", "type": "biochemical", "conditions": "for IC50: substrate Ac-EALPK(11-Abz-Aun)KY(3-NO2)GG-NH2 20 µM, triplicate, read-out: IC50 against HDAC11; for IC50 increase compared to 28: HDAC11", "procedure": "Inhibition of the enzymatic activity of HDACs was performed continuously for HDAC8, HDAC11, and SIRT2 and discontinuously for SIRT2, 3, and 6 using adequate substrates as described previously. , Experimental details are given in the Supporting Information.\nA. HDAC and SIRT deacylase activity assays\nContinuous in vitro HDAC inhibition assays\nThe inhibitors were tested using 384-well plates (GreinerONe). After 5 min of incubation of the inhibitors together with the respective enzymes (HDAC8 = 2 nM, HDAC11 = 20 nM, SIRT2 = 1 nM), the reactions were always started by the addition of substrate for the Zn2+-dependent HDAC and by the addition of NAD+ for SIRT2. The reactions were performed in either HDAC8 buffer (20 mM HEPES, 140 mM NaCl, 10 mM MgCl 2, 1 mM tris(2-carboxyethyl)phosphine (TCEP), and 0.2 mg/ml BSA, pH 7.4 adjusted with NaOH), HDAC11 buffer (20 mM HEPES, 70 µM TCEP and 2 mg/ml BSA, pH 7.4 adjusted with NaOH) or SIRT buffer (20 mM Tris, 150 mM NaCl, 5 mM MgCl2 and 2 mg/ml BSA pH 7.8 adjusted with HCl), respectively. The thiotrifluoracetylated substrate Abz-SRGGK(thio-TFA)FFRR-NH2 (50 µM) […]\nAun is N-(2-aminobenzoyl)-11-aminoundecanoyl, was used for HDAC11 and Ac-EALPKK(Myr)T-C(Fluorescein)-G-NH2 (40 nM) was used for SIRT2 1-3.\nThe fluorescence increase was followed for 1 h with two reads per min using a PerkinElmer Envision […]\nThe excitation wavelength for HDAC8 and 11 was 320 ± 8 nm and the […]\nPositive (enzyme, substrate, DMSO, and buffer) and negative\n(substrate, DMSO, and Buffer) controls were included in every measurement and were set as 100% and 0%, respectively. The measured values were normalized accordingly. All tests were performed in triplicates. The data were fitted using the GraphPad Prism8 software and kinetic values calculated through non-linear regression analysis. […]"}, "HDAC11 [4]": {"target": "T1, HDAC11", "assay": "Microscale thermophoresis (MST) binding", "conditions": "20 nM 32, varying concentrations of HDAC11, 25 °C", "procedure": "Microscale thermophoresis (MST) was performed using a Monolith NT.115 (Nanotemper) with standard capillaries (MO-K022). The reaction solution contained a dilution series (1:1) of 16 different concentrations of HDAC11 (0.48 nM to 16 μM) and 20 nM 32 in MST buffer (20 mM MOPS buffer (pH 7.4 adjusted with NaOH), 0.2 mg/mL BSA, and 70 μM TCEP) and 5% (v/v) DMSO. After 5 min of incubation, the samples were loaded into capillaries and measured at 25 °C with a Filter Nano-BLUE at an excitation power of 20% and an MST power of 40%. The resulting data were fitted by MO.Affinity Analysis software (Nanotemper) via MST curves and fluorescence signals."}, "HDAC11 [5]": {"target": "T1, HDAC11", "set-up": "method as in not printed per compound", "conditions": "literature values, Figure 1; ref not printed per compound; read-out: IC50 as reported for HDAC11; cited from earlier work"}, "[6]": {"tested_on": "global protein fatty acylation", "set-up": "method as in previous studies (number not given)", "conditions": "treatment with pan-HDAC inhibitor; ref previous studies (number not given); cited from earlier work"}, "HDAC11 [7]": {"target": "T1, HDAC11", "set-up": "method as in number not given", "conditions": "myristoylated 12-mer peptide; ref number not given; read-out: KM value as substrate of HDAC11; cited from earlier work"}}, "note": "Several values for one entry are separate records, joined by “and”; a condition that tells them apart may be missing. Equal entries are not always repeated. Entries after “also recorded” stand apart in the source; their conditions may differ. Where two headings read alike, the source gives them in different places. Residues, ends and D or L forms follow the SMILES beside them. No end group written: not given here. ξ: configuration not given here. *: point of attachment. ξGly(tetradecyl) = CCCCCCCCCCCCCCC(N)C(=O)O; Myristoyl = CCCCCCCCCCCCCC(=O)*; X1 = CCCCCCCCCCCCCCC(S)C(=O)*", "data": [{"compound": "CCCCCCCCCCCCCCC(S)C(=O)NCCCC[C@H](NC(=O)[C@H](CCCNC(=N)N)NC(=O)[C@H](C)NC(=O)[C@@H](NC(C)=O)[C@@H](C)O)C(=O)N[C@@H](CO)C(=O)N[C@H](C(=O)NCC(N)=O)[C@@H](C)O", "note": "(stereo partly shown) [Compound 2] (Ac-TARK(X1)STG-NH2; N-terminus and C-terminus assumed)", "values": [{"measurement": "Stability in aqueous solution", "setting": "[1]", "result": "completely stable"}, {"measurement": "Substrate properties / hydrolysis by HDAC11", "setting": "HDAC11 [2]", "result": "no single recognisable peak is present at the expected time; also recorded: not able to hydrolyze"}]}, {"compound": "CCCCCCCCCCCCCCC(N)C(=O)NCCCC[C@H](NC(=O)[C@H](CCCNC(=N)N)NC(=O)[C@H](C)NC(=O)[C@@H](NC(C)=O)[C@@H](C)O)C(=O)N[C@@H](CO)C(=O)N[C@H](C(=O)NCC(N)=O)[C@@H](C)O", "note": "(stereo partly shown) [Compound 10] (Ac-TARK(ξGly(tetradecyl))STG-NH2; N-terminus and C-terminus assumed)", "values": [{"measurement": "Stability in aqueous solution", "setting": "[1]", "result": "completely stable"}, {"measurement": "Substrate properties / hydrolysis by HDAC11", "setting": "HDAC11 [2]", "result": "no single recognisable peak is present at the expected time; also recorded: not able to hydrolyze"}]}, {"compound": "CCCCCCSC[C@@H](N)C(=O)NCCCCC", "note": "[Compound 25]", "values": [{"measurement": "IC50", "setting": "HDAC11 [3]", "result": "904 ± 118", "unit": "nM"}]}, {"compound": "CCCCCCCCSC[C@@H](N)C(=O)NCCCCC", "note": "[Compound 26]", "values": [{"measurement": "IC50", "setting": "HDAC11 [3]", "result": "399 ± 60", "unit": "nM"}]}, {"compound": "CCCCCCCCCCSC[C@@H](N)C(=O)NCCCCC", "note": "[Compound 27]", "values": [{"measurement": "IC50", "setting": "HDAC11 [3]", "result": "150 ± 10.7", "unit": "nM"}]}, {"compound": "CCCCCCCCCCCCSC[C@@H](N)C(=O)NCCCCC", "note": "[Compound 28]", "values": [{"measurement": "IC50", "setting": "HDAC11 [3]", "result": "56.1 ± 6", "unit": "nM"}]}, {"compound": "CCCCCCCCCCCCSC[C@@H](N)C(=O)NCc1cn(C)nn1", "note": "[Compound 29]", "values": [{"measurement": "IC50 increase compared to 28", "setting": "HDAC11 [3]", "result": "more than 10 fold"}]}, {"compound": "CCCCCCCCCCCCSC[C@@H](N)C(=O)N1Cc2ccccc2C1", "note": "[Compound 30]", "values": [{"measurement": "IC50 increase compared to 28", "setting": "HDAC11 [3]", "result": "more than 10 fold"}]}, {"compound": "CCCCCCCCCCCCSC[C@@H](N)C(=O)NCCCC[C@H](NC(=O)[C@H](CCCCN)NC(=O)CCC(=O)NCCCOCCOCCOCCCNC(=O)c1ccc2c(c1)C(=O)OC21c2ccc(O)cc2Oc2cc(O)ccc21)C(N)=O", "note": "[Compound 32]", "values": [{"measurement": "Kd", "setting": "HDAC11 [4]", "result": "271 nM and 270 nM"}, {"measurement": "IC50", "setting": "HDAC11 [3]", "result": 537, "unit": "nM"}]}, {"compound": "CCCCCOCCCCCNNC(=O)c1ccc(CNC(=O)c2ccccc2)cc1", "note": "[Compound B6]", "values": [{"measurement": "IC50", "setting": "HDAC11 [5]", "result": 51.1, "unit": "nM"}]}, {"compound": "C/C=C1\\NC(=O)[C@H]2CSSCC/C=C/[C@H](CC(=O)N[C@H](C(C)C)C(=O)N2)OC(=O)[C@H](C(C)C)NC1=O", "note": "[Romidepsin (FK-228), Romidepsin]", "values": [{"measurement": "IC50", "setting": "HDAC11 [5]", "result": 2700, "unit": "nM"}]}, {"compound": "O=C(CCCCCCC(=O)Nc1ccccc1)NO", "note": "[Vorinostat (SAHA), vorinostat]", "values": [{"measurement": "Global protein fatty acylation", "setting": "[6]", "result": "decrease in global protein fatty acylation"}]}, {"compound": "KQTARK(Myristoyl)STGGWW [H3K9(Myr)]", "values": [{"measurement": "Km", "setting": "HDAC11 [7]", "result": 17.3, "unit": "µM"}]}]}
